Measurements as given in patent publication US9186340B2, “Ischemia/reperfusion protection compositions and methods of using” (priority 2007, dated 2015).

Experiments:
[1] = test system: rats subjected to 60% blood loss; assay: Rat hemorrhagic shock, 60% blood loss (Example 3); assay type: in vivo
Protocol: Rats infused with ketone bodies were subjected to 60% blood loss for at least 1 hour, followed by return of the shed blood. Endpoint measures of neuroprotection were quantitative analysis of neuronal survival and apoptosis in cortex, hippocampus and cerebellum as well as neurologic function exam scores. The objective was to determine the effectiveness of the D-form of beta-hydroxybutyrate (D-BHB) in conjunction with melatonin in protecting the brain from ischemia and providing protection from reperfusion injury after blood return.
The goal of the following experiments was to maintain 60% blood loss for at least three hours using a minimal amount of fluid in order to maintain viability. Sixty-percent blood loss was calculated by using the equation: Total blood volume=Animal body weight×0.06. A bolus volume of 1 ml ischemia/reperfusion protection composition per kilogram of animal body weight was given to animals after approximately 40% blood loss. Some animals only received a single 1 ml/kg bolus, while other animals received a slow infusion (100 μl/hr) to imitate an intravenous drip of solution after the bolus was given. […]
Once rats were fully anesthesized and stabilized for a 20 min period, blood loss was begun. […] Temperature was monitored with a rectal probe. […] Animal death was recorded when blood pressure, respiration, and precordial movement ceased (see FIG. 9 for a timeline). […]

[2] = test system: heart of hibernating ground squirrels; settings: in vivo, ip
Protocol: The overall strategy of these experiments was to measure incorporation of isotope from infused ^13C-BHB into the brain pool of ^13C-BHB and into the tricarboxylic acid (TCA) cycle-derived metabolites such as glutamate, glutamine and aspartate. The same experiments were performed in parallel using [1-^13C2]-glucose (FIG. 1). A quantitative determination of BHB blood-brain transport and a rate of consumption (relative to glucose consumption) was determined in non-hibernating ground squirrels at euthermic temperatures and in hibernating ground squirrels at 4-6° C. Ground squirrels were anesthetized (isoflurane) prior to placement in the magnet of the magnetic resonance (MR) instrument and were injected with ^13C-BHB or [1-^13C2]-glucose.

transport into the heart during hibernation [2] | SMILES | survival following hemorrhagic shock versus 4 M NaCl ([1]; 60% blood loss, same osmolarity NaCl comparator) | survival versus NaCl, bolus followed by infusion ([1]; bolus followed by 100 μl/hr infusion, p-value<0.016)
– | C[C@@H](O)CC(=O)O [D-BHB, D-beta-hydroxybutyrate] | survived longer | lived significantly longer
efficiently transported into the heart | [13CH3][C@@H](O)[13CH2]C(=O)O [^13C-D-BHB, [2,4-^13C] D-beta-hydroxybutyrate] | – | –
